Data published in US11484539B2, “Compounds and their uses for alleviating menopause-associated symptoms” (Estetra SPRL, priority 2018, dated 2022).

Tested on: post-menopausal women
Assay: Weekly frequency of moderate to severe VMS, dose-finding study
Type: in vivo
Details: for Difference with placebo, LS adjusted mean, absolute change in weekly frequency of moderate to severe VMS / Difference with placebo, LS adjusted mean, relative change in weekly frequency of moderate to severe VMS: 15 mg E4 vs placebo; for Differences with placebo (including ineffective doses 2.5 mg and 5 mg), relative change in weekly frequency of moderate to severe VMS, LS adjusted mean / Differences with placebo (including ineffective doses 2.5 mg and 5 mg), relative change in weekly frequency of moderate to severe VMS, p_value: 15.0 mg vs 0 mg; for Relative change in weekly frequency of moderate to severe VMS, LS adjusted mean: analysis with placebo grouped with 2.5 and 5 mg; for Covariate significance, covariate trt1, p_value, relative change in weekly frequency of moderate to severe VMS: 10 mg, 15 mg vs placebo grouped with 2.5 and 5 mg
Excerpt: To determine the Minimum Effective Dose (MED), firstly the selection criteria required that patients presented at least 7 moderate to severe VMS/day or at least 50 moderate to severe VMS/week in the week preceding randomization. Secondly, a placebo group was included in a double-blind fashion. Thirdly, the total patient number was such that statistical significance could be obtained between separate arms of the study. Fourthly, the absolute change from baseline in weekly frequency of moderate to severe VMS was taken into account. An analysis of covariance (ANCOVA) was performed based on the untransformed change in weekly frequency of moderate to severe VMS from baseline. Finally, the change in severity from baseline was evaluated. For this, the Severity Scoring System of VMS was documented by the subjects as follows: • a score of Mild (1) for a sensation of heat without sweating; • a score of Moderate (2) for a sensation of heat with sweating/the subject is able to continue activity; and • a score of Severe (3) for a sensation of heat with sweating/which causes cessation of activity.
Enrolment was approximately 18 months. Individual subject participation was up to 27 weeks: up to 6 weeks pre-screening and washout, up to 4 weeks screening and run-in period, up to 91 days (13 weeks) of E4/placebo treatment followed by 2 weeks (14 days) of progestin therapy and a Follow up visit 1 week after completion of progestin therapy in non-hysterectomised subjects only.
To define the minimum effective dose (MED) of the oral dose of E4 by evaluating changes in frequency and in severity of moderate to severe vasomotor symptoms (VMS).
This was a prospective, multicentre, randomised, placebo-controlled, double-blinded, dose-finding study.
Eligible subjects were hysterectomised and non-hysterectomised post-menopausal women aged 40 to 65 years, inclusive, presenting at least 7 moderate to severe hot flushes/day or at least 50 moderate to severe hot flushes/week.
The subjects have met all of the following inclusion criteria at the randomization visit. These criteria were assessed during the screening period: • 1. Women aged 40 to 65 years, inclusive, presenting at least 7 moderate to severe hot flushes/day or at least 50 moderate to severe hot flushes/week in the week preceding randomization. • 2. Body Mass Index (BMI) between 18.0 and 35.0 kg/m^2, inclusive. • 3. Post-menopausal status defined as levels of follicle stimulating hormone (FSH) >40 IU/L and: • amenorrhoea for at least 12 consecutive months or, • amenorrhoea for at least 6 months with estradiol (E2)<20 pg/mL or, • at least 6 weeks post-surgical bilateral oophorectomy with or without hysterectomy with a copy of the pathology report or a statement on letterhead from the subject's physician documenting both ovaries were removed is required. • 4. For non-hysterectomised women: intact uterus with bi-layer endometrial thickness […] on TVUS. • 5. Negative pregnancy test. • 6. Good physical and mental health, in the judgement of the Principal Investigator (PI), on the basis of medical, surgical and gynaecological history, physical examination, gynaecological examination, clinical laboratory, and vital signs. • 7. Subject has provided signed and dated written informed consent before admission to the study. • 8. Subject is able to understand and comply with the protocol requirements, instructions, and protocol-stated restrictions. Exclusion Criteria:
All treatments (Estetrol, hereinafter, E4, [2.5 mg, 5 mg, 10 mg, 15 mg] capsule) were administered once daily (QD) per os for at least 12 consecutive weeks until the last biological assessments (Day 91 maximum) had been performed.
In order to analyse the data recorded in this study, treatment groups have been compared using an ANCOVA (analysis of covariance) with respect to the change in weekly frequency of moderate to severe VMS from baseline to weeks 4 and 12. […]

[1] = week 4, ANCOVA with study centre
[2] = week 12, ANCOVA with study centre

C[C@]12CC[C@@H]3c4ccc(O)cc4CC[C@H]3[C@@H]1[C@@H](O)[C@@H](O)[C@@H]2O [E4, 1,3,5 (10)-estratrien-3,15alpha,16alpha,17beta-tetrol]
Mean change from baseline in weekly frequency of moderate to severe VMS (15 mg E4 QD per os, week 4): −41.43
Relative change (% from baseline) in weekly frequency of moderate to severe VMS, mean (15 mg E4 QD per os, week 4): −67%
Mean change from baseline in weekly frequency of moderate to severe VMS (15 mg E4 QD per os, week 5): −44.34
Relative change (% from baseline) in weekly frequency of moderate to severe VMS, mean (15 mg E4 QD per os, week 5): −72%
Mean change from baseline in weekly frequency of moderate to severe VMS (15 mg E4 QD per os, week 6): −46.58
Relative change (% from baseline) in weekly frequency of moderate to severe VMS, mean (15 mg E4 QD per os, week 6): −76%
Mean change from baseline in weekly frequency of moderate to severe VMS (15 mg E4 QD per os, week 7): −48.51
Relative change (% from baseline) in weekly frequency of moderate to severe VMS, mean (15 mg E4 QD per os, week 7): −79%
Mean change from baseline in weekly frequency of moderate to severe VMS (15 mg E4 QD per os, week 8): −48.35
Relative change (% from baseline) in weekly frequency of moderate to severe VMS, mean (15 mg E4 QD per os, week 8): −79%
Mean change from baseline in weekly frequency of moderate to severe VMS (15 mg E4 QD per os, week 9): −49.62
Relative change (% from baseline) in weekly frequency of moderate to severe VMS, mean (15 mg E4 QD per os, week 9): −81%
Mean change from baseline in weekly frequency of moderate to severe VMS (15 mg E4 QD per os, week 10): −48.88
Relative change (% from baseline) in weekly frequency of moderate to severe VMS, mean (15 mg E4 QD per os, week 10): −80%
Mean change from baseline in weekly frequency of moderate to severe VMS (15 mg E4 QD per os, week 11): −49.92
Relative change (% from baseline) in weekly frequency of moderate to severe VMS, mean (15 mg E4 QD per os, week 11): −82%
Mean change from baseline in weekly frequency of moderate to severe VMS (15 mg E4 QD per os, week 12): −50.94
Relative change (% from baseline) in weekly frequency of moderate to severe VMS, mean (15 mg E4 QD per os, week 12): −84%
Difference with placebo, LS adjusted mean, absolute change in weekly frequency of moderate to severe VMS [1]: −9.804
Difference with placebo, LS adjusted mean, relative change in weekly frequency of moderate to severe VMS [1]: −0.1564
Difference with placebo, LS adjusted mean, absolute change in weekly frequency of moderate to severe VMS (week 4, without site effect): −10.71
Difference with placebo, LS adjusted mean, relative change in weekly frequency of moderate to severe VMS (week 4, without site effect): −0.1703
Difference with placebo, LS adjusted mean, absolute change in weekly frequency of moderate to severe VMS [2]: −10.09
Difference with placebo, LS adjusted mean, relative change in weekly frequency of moderate to severe VMS [2]: −0.1585
Difference with placebo, LS adjusted mean, absolute change in weekly frequency of moderate to severe VMS (week 12, without site effect): −10.98
Difference with placebo, LS adjusted mean, relative change in weekly frequency of moderate to severe VMS (week 12, without site effect): −0.1723
Reduction in the frequency of moderate to severe VMS when compared to baseline (15 mg daily dose): over 80%
Responders: patients showing a response of 50% or more (relative change from baseline in weekly frequency of moderate to severe VMS) (15 mg daily dose, week 12): 91.8%
Responders: patients showing a response of 75% or more (weekly frequency of moderate to severe VMS) (15 mg daily dose, week 12): 77.6%
Differences with placebo (including ineffective doses 2.5 mg and 5 mg), relative change in weekly frequency of moderate to severe VMS, LS adjusted mean (week 4): −0.1797
Differences with placebo (including ineffective doses 2.5 mg and 5 mg), relative change in weekly frequency of moderate to severe VMS, p_value (week 4): 0.00218
Differences with placebo (including ineffective doses 2.5 mg and 5 mg), relative change in weekly frequency of moderate to severe VMS, LS adjusted mean (week 12): −0.1826
Differences with placebo (including ineffective doses 2.5 mg and 5 mg), relative change in weekly frequency of moderate to severe VMS, p_value (week 12): 0.00099
Relative change (% from baseline) in weekly frequency of moderate to severe VMS, mean (15 mg, Week 12): −84%
Relative change (% from baseline) in weekly frequency of moderate to severe VMS, mean (15 mg, week 0): 0%
Relative change (% from baseline) in weekly frequency of moderate to severe VMS, mean (15 mg, week 1): −22%
Relative change (% from baseline) in weekly frequency of moderate to severe VMS, mean (15 mg, week 2): −46%
Relative change (% from baseline) in weekly frequency of moderate to severe VMS, mean (15 mg, week 3): −57%
Relative change (% from baseline) in weekly frequency of moderate to severe VMS, mean (15 mg, week 4): −67%
Relative change in weekly frequency of moderate to severe VMS, LS adjusted mean (15 mg, week 4): −0.6475
Relative change (% from baseline) in weekly frequency of moderate to severe VMS, mean (15 mg, week 5): −72%
Relative change (% from baseline) in weekly frequency of moderate to severe VMS, mean (15 mg, week 6): −76%
Relative change (% from baseline) in weekly frequency of moderate to severe VMS, mean (15 mg, week 7): −79%
Relative change (% from baseline) in weekly frequency of moderate to severe VMS, mean (15 mg, week 8): −79%
Relative change (% from baseline) in weekly frequency of moderate to severe VMS, mean (15 mg, week 9): −81%
Relative change (% from baseline) in weekly frequency of moderate to severe VMS, mean (15 mg, week 10): −80%
Relative change (% from baseline) in weekly frequency of moderate to severe VMS, mean (15 mg, week 11): −82%
Relative change in weekly frequency of moderate to severe VMS, LS adjusted mean (15 mg, week 12): −0.8006
Minimal Effective Dose for the alleviation of VMS (perimenopausal and postmenopausal women): about 15 mg daily
Efficacy on vasomotor parameters (two lowest doses tested (2.5 mg per day and 5 mg per day)): did not show efficacy
Covariate significance, covariate trt1, p_value, relative change in weekly frequency of moderate to severe VMS (week 4): 0.0039
Covariate significance, covariate trt1, p_value, relative change in weekly frequency of moderate to severe VMS (week 12): 0.0017
